From ChEMBL document CHEMBL1136069, “Urea small molecule agonists on mouse melanocortin receptors” (Bioorg Med Chem Lett, 2003)

What was measured:
Melanocortin receptor 5 = Melanocortin receptor 5 (Mus musculus, UniProt P41149); assay: Agonist activity on mouse melanocortin 5 receptor (mMC5R) stably expressed in […] cells; type: functional, cell-based
[1] = molecular target: Melanocyte-stimulating hormone receptor (Mus musculus, UniProt Q01727); assay: Agonist activity on mouse melanocortin 1 receptor (mMC1R) stably expressed in HEK cells; type: functional, cell-based, HEK293
Melanocortin receptor 4 = Melanocortin receptor 4 (Mus musculus, UniProt P56450); assay: Agonist activity on mouse melanocortin 4 receptor (mMC4R) stably expressed in […] cells; type: functional, cell-based
Melanocortin receptor 3 = Melanocortin receptor 3 (Mus musculus, UniProt P33033); assay: Agonist activity on mouse Melanocortin 3 receptor (mMC3R) stably expressed in HEK cells; type: functional, cell-based, HEK293
Chain of Melanocortin receptor 3 (P33033 whole entry): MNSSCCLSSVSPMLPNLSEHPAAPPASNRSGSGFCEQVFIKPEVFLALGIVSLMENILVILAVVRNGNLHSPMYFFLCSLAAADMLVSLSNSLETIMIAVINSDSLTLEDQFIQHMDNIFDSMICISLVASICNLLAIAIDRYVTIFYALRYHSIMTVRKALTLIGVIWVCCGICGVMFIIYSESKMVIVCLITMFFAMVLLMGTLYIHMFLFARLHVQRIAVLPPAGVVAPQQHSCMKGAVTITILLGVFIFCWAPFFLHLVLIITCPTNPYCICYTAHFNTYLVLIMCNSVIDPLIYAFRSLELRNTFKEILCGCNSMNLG

Chain of Melanocyte-stimulating hormone receptor (Q01727 whole entry): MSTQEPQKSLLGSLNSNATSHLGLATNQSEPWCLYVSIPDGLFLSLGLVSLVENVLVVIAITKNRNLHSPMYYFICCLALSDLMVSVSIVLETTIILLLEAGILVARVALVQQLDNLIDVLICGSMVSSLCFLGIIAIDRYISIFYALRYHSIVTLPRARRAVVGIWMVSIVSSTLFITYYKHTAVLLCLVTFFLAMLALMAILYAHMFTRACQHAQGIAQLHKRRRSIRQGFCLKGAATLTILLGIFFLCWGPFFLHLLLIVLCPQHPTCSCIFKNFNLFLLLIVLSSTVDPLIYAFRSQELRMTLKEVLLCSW
Chain of Melanocortin receptor 4 (P56450 whole entry): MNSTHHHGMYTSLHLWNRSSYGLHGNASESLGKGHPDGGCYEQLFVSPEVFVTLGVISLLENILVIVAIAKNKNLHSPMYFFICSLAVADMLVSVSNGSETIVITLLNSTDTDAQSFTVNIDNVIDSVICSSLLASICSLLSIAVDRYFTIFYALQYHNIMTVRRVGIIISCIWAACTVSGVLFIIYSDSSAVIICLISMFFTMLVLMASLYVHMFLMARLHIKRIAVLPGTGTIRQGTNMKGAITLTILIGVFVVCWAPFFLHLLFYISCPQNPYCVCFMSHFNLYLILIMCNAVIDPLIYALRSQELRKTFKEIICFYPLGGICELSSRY
Chain of Melanocortin receptor 5 (P41149 whole entry): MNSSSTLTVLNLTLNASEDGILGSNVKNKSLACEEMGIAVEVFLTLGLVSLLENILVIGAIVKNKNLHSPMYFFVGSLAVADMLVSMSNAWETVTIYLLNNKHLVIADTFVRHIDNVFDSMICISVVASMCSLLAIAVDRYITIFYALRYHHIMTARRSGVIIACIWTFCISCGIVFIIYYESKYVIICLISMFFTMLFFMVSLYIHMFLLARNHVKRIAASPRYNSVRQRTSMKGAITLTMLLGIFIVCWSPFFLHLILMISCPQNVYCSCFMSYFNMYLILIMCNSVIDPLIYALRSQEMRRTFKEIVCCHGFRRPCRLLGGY

EC50 (Melanocortin receptor 5) [µM] | EC50 [1] [µM] | EC50 (Melanocortin receptor 4) [µM] | EC50 (Melanocortin receptor 3) [µM] | SMILES
4.9 | 0.4 | 0.4 | 10.7 | NCc1ccc(NC(=O)[C@H](Cc2c[nH]c3ccccc23)NC(=O)NCc2ccccc2)cc1
> 100 | > 100 | > 100 | > 100 | NCCCCNC(=O)[C@H](CCc1ccccc1)NC(=O)NCc1ccccc1
39.9 | 51.2 | > 100 | > 100 | NCCCNC(=O)[C@H](Cc1c[nH]c2ccccc12)NC(=O)NCc1ccccc1
> 100 | 22.3 | > 100 | > 100 | NCCCCCCNC(=O)[C@H](Cc1c[nH]c2ccccc12)NC(=O)NCc1ccccc1
8.2 | 5 | 2.8 | 4.4 | NCCCCNC(=O)[C@H](Cc1c[nH]c2ccccc12)NC(=O)NC1CCN(Cc2ccccc2)CC1
20 | 14.8 | > 100 | > 100 | NCCCCCNC(=O)[C@H](Cc1c[nH]c2ccccc12)NC(=O)NCc1ccccc1
30.5 | 55 | 23.7 | > 100 | NCCCCNC(=O)[C@H](Cc1c[nH]c2ccccc12)NC(=O)NCc1ccccc1
> 100 | > 100 | > 100 | > 100 | NCCCCNC(=O)[C@H](Cc1c[nH]c2ccccc12)NC(=O)NCCc1ccccc1
> 100 | 28 | > 100 | > 100 | Cc1cccc(CNC(=O)[C@H](Cc2c[nH]c3ccccc23)NC(=O)NCc2ccccc2)c1
4.9 | 7.9 | 3.4 | 1.7 | NCCCCNC(=O)[C@H](Cc1c[nH]c2ccccc12)NC(=O)NN1CCc2ccccc2C1
28.9 | 20 | 100 | 100 | NCCCCNC(=O)[C@H](Cc1c[nH]c2ccccc12)NC(=O)NN1CCC(Cc2ccccc2)CC1
14.4 | 20.5 | > 100 | > 100 | NCCCCNC(=O)[C@H](Cc1ccc(OCc2ccccc2)cc1)NC(=O)NCc1ccccc1
32.8 | 42.4 | 23.7 | 100 | NCCCCNC(=O)[C@@H](Cc1c[nH]c2ccccc12)NC(=O)NCc1ccccc1
8.2 | 5.2 | > 100 | 4.4 | CC1CCN(CNC(=O)[C@H](Cc2c[nH]c3ccccc23)NC(=O)NCc2ccccc2)CC1
